# Source: patent US6737383B1, “Herbicidal oxadiazolidines” (priority 1999, dated 2004)
# How the values were obtained:
# [1] = system: bedstraw; assay: Test B pre/postemergence bedstraw; type: in vivo, Galium aparine
# Summary of the method: (§1)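 Response is a visual 0-to-10 score relative to untreated plants, where 0 means no effect and 10 means complete control, taken twelve to sixteen days after application. Treatments went onto soil at planting and onto foliage of 1- to 4-leaf plants, using a surfactant-containing non-phytotoxic solvent.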
# [2] = system: bamyardgrass; assay: Test B flood test barnyardgrass; type: in vivo, Echinochloa crus-galli
# Summary of the method: (§2)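 Plants were grown to the 2-leaf stage before treatment with test chemical, then held in a greenhouse for twelve to sixteen days. Injury was visually rated against untreated controls on a 0–10 scale, where 0 is no effect and 10 is complete control.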
# [3] = system: purple nutsedge; assay: Test B pre/postemergence purple nutsedge; type: in vivo, Cyperus rotundus; conditions: Postemergence
# Summary of the method: as §1
# [4] = system: cocklebur; assay: Test B pre/postemergence cocklebur; type: in vivo, Xanthium strumarium
# Summary of the method: as §1
# [5] = system: surinam grass; assay: Test B pre/postemergence surinam grass; type: in vivo, Brachiaria decumbens
# Summary of the method: as §1
# [6] = system: sugar beet; assay: Test B pre/postemergence sugar beet; type: in vivo, Beta vulgaris; conditions: Preemergence
# Summary of the method: as §1
# [7] = system: wild oat; assay: Test B pre/postemergence wild oat; type: in vivo, Avena fatua; conditions: Preemergence
# Summary of the method: as §1
# [8] = system: wheat; assay: Test B pre/postemergence wheat; type: in vivo, Triticum aestivum; conditions: Preemergence
# Summary of the method: as §1
# [9] = system: rice; assay: Test B flood test rice; type: in vivo, Oryza sativa
# Summary of the method: as §2
# [10] = system: giant foxtail; assay: Test B pre/postemergence giant foxtail; type: in vivo, Setaria faberii
# Summary of the method: as §1
# [11] = system: blackgrass; assay: Test B pre/postemergence blackgrass; type: in vivo, Alopecurus myosuroides
# Summary of the method: as §1
# [12] = system: duck salad; assay: Test B flood test duck salad; type: in vivo, Heteranthera limosa
# Summary of the method: as §2
# [13] = system: rape; assay: Test B pre/postemergence rape; type: in vivo, Brassica napus
# Summary of the method: as §1
# [14] = system: crabgrass; assay: Test B pre/postemergence crabgrass; type: in vivo, Digitaria sanguinalis
# Summary of the method: as §1
# [15] = system: pigweed; assay: Test B pre/postemergence pigweed; type: in vivo, Amaranthus retroflexus
# Summary of the method: as §1
# [16] = system: smallflower flatsedge; assay: Test B flood test smallflower flatsedge; type: in vivo, Cyperus difformis
# Summary of the method: as §2
# [17] = system: corn; assay: Test B pre/postemergence corn; type: in vivo, Zea mays
# Summary of the method: as §1
# [18] = system: soybean; assay: Test B pre/postemergence soybean; type: in vivo, Glycine max; conditions: Preemergence
# Summary of the method: as §1
# [19] = system: velvetleaf; assay: Test B pre/postemergence velvetleaf; type: in vivo, Abutilon theophrasti; conditions: Preemergence
# Summary of the method: as §1
# [20] = system: morningglory; assay: Test B pre/postemergence morningglory; type: in vivo, Ipomoea hederacea
# Summary of the method: as §1
# [21] = Preemergence, Rate 31 g/ha, visual rating, scale 0 to 10 (0 no effect, 10 complete control)
# [22] = Preemergence, Rate 62 g/ha, scale of 0 to 10 where 0 is no effect and 10 is complete control
# [23] = Preemergence, Rate 250 g/ha, scale of 0 to 10 where 0 is no effect and 10 is complete control
# [24] = Rate 31 g/ha, Postemergence, scale 0 to 10
# [25] = Rate 62 g/ha, Postemergence, scale of 0 to 10 where 0 is no effect and 10 is complete control
# [26] = Rate 125 g/ha, Postemergence, scale 0 to 10
# [27] = Rate 125 g/ha, Preemergence, scale of 0 to 10 where 0 is no effect and 10 is complete control
# [28] = Rate 62 g/ha, headed Pre-emergence (flood test species), scale 0 to 10 (0 no effect, 10 complete control)
# [29] = Rate 125 g/ha, Pre-emergence, flood test species, scale 0 to 10 where 0 is no effect and 10 is complete control
# [30] = Rate 250 g/ha, Pre-emergence, flood-test species, scale 0 to 10, 0 is no effect, 10 is complete control
# [31] = Rate 500 g/ha, Pre-emergence, flood test species, scale 0 to 10 (0 no effect, 10 complete control)
# [32] = Rate 31 g/ha, visual rating, scale 0 to 10 (0 no effect, 10 complete control)
# [33] = Rate 62 g/ha, scale of 0 to 10 where 0 is no effect and 10 is complete control
# [34] = Rate 250 g/ha, scale of 0 to 10 where 0 is no effect and 10 is complete control
# [35] = Rate 125 g/ha, scale of 0 to 10 where 0 is no effect and 10 is complete control
smiles,measurement,setting,value
CC(C)N(C(=O)n1oc(=O)n(CCc2ccccc2)c1=O)c1ccc(F)cc1 [Compound 250],Bedstraw plant response rating,[1]; [21],0
same,Bedstraw plant response rating,[1]; [22],0
same,Bedstraw plant response rating,[1]; [23],0
same,Bedstraw plant response rating,[1]; [24],0
same,Bedstraw plant response rating,[1]; [25],0
same,Bedstraw plant response rating,[1]; [26],0
same,Bedstraw plant response rating,[1]; [27],0
same,"Plant response rating (0 to 10; 0 is no effect, 10 is complete control), Bedstraw","[1]; Rate 250 g/ha, Postemergence",9
same,Barnyardgrass plant response rating,[2]; [28],0
same,Barnyardgrass plant response rating,[2]; [29],0
same,Barnyardgrass plant response rating,[2]; [30],0
same,Barnyardgrass plant response rating,[2]; [31],0
same,Nutsedge plant response rating,"[3]; Rate 31 g/ha, scale 0 to 10",0
same,"Plant response rating (0 to 10; 0 is no effect, 10 is complete control), Nutsedge",[3]; Rate 250 g/ha,0
same,Cocklebur plant response rating,[4]; [21],0
same,Cocklebur plant response rating,[4]; [22],0
same,Cocklebur plant response rating,[4]; [23],0
same,Cocklebur plant response rating,[4]; [24],0
same,Cocklebur plant response rating,[4]; [25],0
same,Cocklebur plant response rating,[4]; [26],0
same,Cocklebur plant response rating,[4]; [27],0
same,"Plant response rating (0 to 10; 0 is no effect, 10 is complete control), Cocklebur","[4]; Rate 250 g/ha, Postemergence",1
same,B. signalgrass plant response rating,[5]; [21],0
same,B. signalgrass plant response rating,[5]; [22],0
same,B. signalgrass plant response rating,[5]; [23],0
same,B. signalgrass plant response rating,[5]; [24],0
same,B. signalgrass plant response rating,[5]; [25],0
same,B. signalgrass plant response rating,"[5]; Rate 125 g/ha, Postemergence, scale 0 (no effect) to 10 (complete control)",0
same,B. signalgrass plant response rating,[5]; [27],0
same,"Plant response rating (0 to 10; 0 is no effect, 10 is complete control), B. signalgrass","[5]; Rate 250 g/ha, Postemergence",0
same,Sugarbeets plant response rating,[6]; [32],0
same,Sugarbeets plant response rating,[6]; [33],0
same,Sugarbeets plant response rating,[6]; [34],5
same,Sugarbeets plant response rating,[6]; [35],0
same,Wild oats plant response rating,[7]; [32],0
same,Wild oats plant response rating,[7]; [33],0
same,Wild oats plant response rating,[7]; [34],0
same,Wild oats plant response rating,[7]; [35],0
same,Wheat plant response rating,[8]; [32],0
same,Wheat plant response rating,[8]; [33],0
same,Wheat plant response rating,[8]; [34],0
same,Wheat plant response rating,[8]; [35],0
same,Rice plant response rating,[9]; [28],0
same,Rice plant response rating,[9]; [29],0
same,Rice plant response rating,[9]; [30],0
same,Rice plant response rating,[9]; [31],0
same,Giant foxtail plant response rating,[10]; [21],7
same,Giant foxtail plant response rating,[10]; [22],8
same,Giant foxtail plant response rating,[10]; [23],10
same,Giant foxtail plant response rating,[10]; [24],0
same,Giant foxtail plant response rating,[10]; [27],8
same,"Plant response rating (0 to 10; 0 is no effect, 10 is complete control), Giant foxtail","[10]; Rate 250 g/ha, Postemergence",0
same,Blackgrass plant response rating,[11]; [21],0
same,Blackgrass plant response rating,[11]; [22],0
same,Blackgrass plant response rating,[11]; [23],0
same,Blackgrass plant response rating,[11]; [24],0
same,Blackgrass plant response rating,[11]; [25],0
same,Blackgrass plant response rating,[11]; [26],0
same,Blackgrass plant response rating,[11]; [27],0
same,"Plant response rating (0 to 10; 0 is no effect, 10 is complete control), Blackgrass","[11]; Rate 250 g/ha, Postemergence",2
same,Ducksalad plant response rating,[12]; [28],0
same,Ducksalad plant response rating,[12]; [29],0
same,Ducksalad plant response rating,[12]; [30],0
same,Ducksalad plant response rating,[12]; [31],4
same,Rape plant response rating,[13]; [21],0
same,Rape plant response rating,[13]; [22],0
same,Rape plant response rating,[13]; [23],0
same,Rape plant response rating,[13]; [24],0
same,Rape plant response rating,[13]; [27],0
same,"Plant response rating (0 to 10; 0 is no effect, 10 is complete control), Rape","[13]; Rate 250 g/ha, Postemergence",3
same,Crabgrass plant response rating,[14]; [21],0
same,Crabgrass plant response rating,[14]; [22],2
same,Crabgrass plant response rating,[14]; [23],8
same,Crabgrass plant response rating,[14]; [24],0
same,Crabgrass plant response rating,[14]; [27],4
same,"Plant response rating (0 to 10; 0 is no effect, 10 is complete control), Crabgrass","[14]; Rate 250 g/ha, Postemergence",0
same,Redroot pigweed plant response rating,[15]; [21],0
same,Redroot pigweed plant response rating,[15]; [22],0
same,Redroot pigweed plant response rating,[15]; [23],3
same,Redroot pigweed plant response rating,[15]; [24],0
same,Redroot pigweed plant response rating,[15]; [27],3
same,"Plant response rating (0 to 10; 0 is no effect, 10 is complete control), Redroot pigweed","[15]; Rate 250 g/ha, Postemergence",0
same,S. Flatsedge plant response rating,[16]; [28],0
same,S. Flatsedge plant response rating,[16]; [29],0
same,S. Flatsedge plant response rating,[16]; [30],0
same,S. Flatsedge plant response rating,[16]; [31],0
same,Corn plant response rating,[17]; [21],0
same,Corn plant response rating,[17]; [22],0
same,Corn plant response rating,[17]; [23],0
same,Corn plant response rating,[17]; [24],0
same,Corn plant response rating,[17]; [25],0
same,Corn plant response rating,[17]; [26],0
same,Corn plant response rating,[17]; [27],0
same,"Plant response rating (0 to 10; 0 is no effect, 10 is complete control), Corn","[17]; Rate 250 g/ha, Postemergence",0
same,Soybean plant response rating,[18]; [32],0
same,Soybean plant response rating,[18]; [33],0
same,Soybean plant response rating,[18]; [34],0
same,Soybean plant response rating,[18]; [35],0
same,Velvetleaf plant response rating,[19]; [32],0
same,Velvetleaf plant response rating,[19]; [33],0
same,Velvetleaf plant response rating,[19]; [34],0
same,Velvetleaf plant response rating,[19]; [35],0
same,Morningglory plant response rating,[20]; [21],0
same,Morningglory plant response rating,[20]; [22],0
same,Morningglory plant response rating,[20]; [23],0
same,Morningglory plant response rating,[20]; [24],4
same,Morningglory plant response rating,[20]; [27],0
same,"Plant response rating (0 to 10; 0 is no effect, 10 is complete control), Morningglory","[20]; Rate 250 g/ha, Postemergence",6
